Two compounds from publication PMC6409975, “Functional Characterization of OXYL, A SghC1qDC LacNAc-specific Lectin from The Crinoid Feather Star Anneissia Japonica” (Marine Drugs, 2019) can be followed below.

Values after ≈ are worked out from the molar mass of the structure shown.

The target in assay [1] is T1, OXYL (Anneissia japonica, UniProt A0A482DHP7).
T1 construct: signal peptide 1-18 removed; mainly tetramer; HiLyte Fluor 555-labelled for glycan array
Description: hemagglutination inhibition, rabbit erythrocytes. The assay is classed as binding. The conditions noted are these: lectin titer 16; TBS with 0.2% Triton X-100; room temperature, 1 h; glutaraldehyde-fixed trypsinized erythrocytes. The source says: hemagglutination inhibition, rabbit erythrocytes on OXYL

Assay [2] concerns the target T1, OXYL. Description: glycan array, fluorescence-labelled lectin. As to conditions: immobilised glycan (1 mM spotted); HiLyte Fluor 555-labelled OXYL 0-20 μg/mL; 4 °C overnight; weaker than LNnT. The assay is classed as binding.

T1 sequence (A0A482DHP7 entry or part of it): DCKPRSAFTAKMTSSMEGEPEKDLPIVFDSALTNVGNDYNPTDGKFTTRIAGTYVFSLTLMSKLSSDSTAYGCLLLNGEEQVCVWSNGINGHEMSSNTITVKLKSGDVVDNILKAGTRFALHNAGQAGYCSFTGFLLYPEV

Consider `CC(=O)N[C@H]1C(O)O[C@H](CO)[C@@H](O[C@@H]2O[C@H](CO)[C@H](O)[C@H](O)[C@H]2O)[C@@H]1O` (some centres unmarked) [N-acetyllactosamine], for which the Minimum inhibitory conc. in assay [1] was 3.13 mM (≈ 1200 µg/mL).
Turning to `CC(=O)N[C@H]1[C@H]([C@H](O)[C@H](O)CO)O[C@@](O[C@H]2[C@@H](O)[C@@H](CO)O[C@@H](O[C@H]3[C@H](O)[C@@H](NC(C)=O)C(O)O[C@@H]3CO)[C@@H]2O)(C(=O)O)C[C@@H]1O` (some centres unmarked) [compound 2, S3LN], in assay [2], the “glycan array, fluorescence-labelled lectin” value is on record as “OXYL could bind to 3-sialylated LacNAc more strongly than to 6-sialylated LacNAc”.
